Source: patent publication EP0109697B1, “Rodent bait” (priority 1982, dated 1984)

Tests used:
mice [1] = test: Feeding trials with various acute poisons in formulation C particles (Example 11), mice; assay type: in vivo; conditions: MOUSE; formulation C particle 0.45 × 0.45 mm; bait conc. 22.5 ppm
Procedure: (§1) Particles containing various acute poisons were made according to Formulation C, and feeding trials were carried out with rats and with mice.

Rats [2] = test: Feeding trials with various acute poisons in formulation C particles (Example 11), rats; assay type: in vivo; conditions: RAT, formulation C particle 1.5 × 1.5 mm
Procedure: as §1

female Wistar rats = test: Feeding test of totally homogeneous aldicarb bait (Example 1), rats; assay type: in vivo, rat; conditions: for Kill Rat: 100 ppm aldicarb in medium oatmeal, 5 female Wistar rats
Description: (§2) Except where otherwise stated, baits according to the invention were produced by thoroughly hand mixing the particles with medium oatmeal, and the baits were fed to caged rats and mice as the sole feed. Water was made freely available to them. The baits remaining in each cage were weighed daily, and fresh baits provided each day.
(§3) Totally homoneneous baits were produced by slurrying an acetone solution of aldicarb on medium oatmeal to give a concentrate, then diluting the concentrate with medium oatmeal by hand mixing, to give an aldicarb concentration of 100 ppm. The toxicity of the resulting bait was determined by tests on 5 female Wistar rats and 10 male LACA mice.

male LACA mice [3] = test: Feeding test of totally homogeneous aldicarb bait (Example 1), mice; assay type: in vivo, mouse; conditions: for Kill Mouse: 100 ppm aldicarb in medium oatmeal, 10 male LACA mice
Description: as §2, §3

Wistar females = test: Feeding test of formulation A 1.25 mg particles in oatmeal (Example 2); assay type: in vivo, rat; conditions: one 1.25 mg pellet per 20 grams of oatmeal, 5 Wistar females
Procedure: as §2
The toxicity of aldicarb particles made to formulation A was determined by tests on 5 Wistar females exposed to medium oatmeal containing one 1.25 mg pellet per 20 grams of oatmeal.

[4] = tested on: Heterozygous anti-coagulant resistant rats; test: Feeding test of formulation A 1.25 mg particles in oatmeal (Example 3); assay type: in vivo, rat; conditions: one 1.25 mg particle per 20 grams of oatmeal, bait not changed daily, 5 heterozygous anti-coagulant resistant rats
Procedure: as §2
5 Heterozygous anti-coagulant resistant rats were allowed to feed on bait consisting of medium oatmeal containing one 1.25 mg particle made to formulation A per 20 grams of oatmeal. The bait was weighed daily, but in this example it was not changed daily.

male LACA mice [5] = test: Feeding test of formulation A 0.5 mg particles in oatmeal (Example 4); assay type: in vivo, mouse; conditions: 10 male LACA mice
Procedure: as §2
10 Male LACA mice were fed with bait consisting of medium oatmeal containing one 0.5 mg particle made according to formulation A per 10 grams of oatmeal.

male LACA mice [6] = test: Feeding test of formulation A 0.2 mg particles in oatmeal (Example 5); assay type: in vivo, mouse; conditions: 10 male LACA mice
Procedure: as §2
10 Male LACA mice were permitted to feed on bait consisting of medium oatmeal containing one 0.2 mg particle of formulation A per-2 grams of oatmeal.

male LACA mice [7] = test: Feeding test of formulation B 0.2 mg particles in oats (Example 6); assay type: in vivo, mouse; conditions: 50 g medium oats with 10 particles of formulation B, 0.2 mg aldicarb each; 5 male LACA mice starved for 24 hours; Day 1
Procedure: as §2
5 Male LACA mice were starved for 24 hours and then permitted to feed on 50 g of medium oats containing dispersed therein 10 particles of formulation B each containing 0.2 mg of aldicarb.

[8] = tested on: Male heterozygous resistant rats; test: Feeding test of formulation B 1.1 mg particles in oatmeal (Example 7); assay type: in vivo, rat; conditions: 50 g medium oatmeal with 10 particles of formulation B, 1.1 mg aldicarb each; 3 male heterozygous resistant rats; Day 1
Procedure: as §2
3 Male heterozygous resistant rats were permitted to feed on 50 g medium oatmeal containing 10 particles of formulation B each containing 1.1 mg of aldicarb.

[9] = tested on: female 300-350 gram Wistar rats; test: Feeding test of mouse bait particles on rats (Example 8); assay type: in vivo, rat; conditions: for Mouse bait particles Rat Kill: 0.1 mg aldicarb particles, one per two grams of oatmeal (50 ppm), five female Wistar rats
Procedure: (§4) Particles of a size suitable for consumption whole (without nibbling) by mice, i.e. about 0.5 mm diameter spheres, containing 0.1 mg of aldicarb per particle were produced by a precipitation process.
(§5) The mouse bait particles were distributed in medium oatmeal at the concentration of one per two grams of oatmeal (50 ppm), and the rat bait particles were distributed in medium oatmeal at the concentration of one per twenty grams of oatmeal (50 ppm).
(§6) Ten male 12-18 gram LAC mice and five female 300-350 gram Wistar rats were permitted to feed on the mouse bait; and five female 300-350 gram Wistar rats were allowed to feed on the rat bait. The baits were topped up when necessary to keep a supply of food material available, and water was supplied freely.

male 12-18 gram LAC mice = test: Feeding test of mouse bait particles on mice (Example 8); assay type: in vivo; conditions: for Mouse bait particles Mouse Kill: 0.1 mg aldicarb particles, one per two grams of oatmeal (50 ppm), ten male LAC mice
Procedure: as §4, §5, §6

[10] = tested on: female 300-350 gram Wistar rats; test: Feeding test of rat bait particles on rats (Example 8); assay type: in vivo; conditions: for Rat bait particles Rat Kill: 1.0 mg aldicarb particles, one per twenty grams of oatmeal (50 ppm), five female Wistar rats
Procedure: Suitably larger particles appropriate for rats, i.e. about 1 mm x 1 mm cylinders, containing 1.0 mg of aldicarb per particle were produced by extrusion.
as §5, §6

[11] = tested on: mice with a body weight approximately 20 g; test: No-choice feeding test of three 100 ppm aldicarb presentations (Example 9), mice; assay type: in vivo, mouse; conditions: for Mouse Kill %: no choice, after 5 days
Procedure: (§7) Three baits were produced containing the toxicant aldicarb, each at 100 ppm (0.01%) concentration. Aldicarb was presented in the bait either homogeneously dispersed in the manner of a conventional rodenticide, as discrete 0.4 x 0.4 mm particles, (formulation C) or as discrete 1.0 x 1.0 mm particles. The diluent was medium grade oatmeal in all cases. Tests were carried out on mice with a body weight approximately 20 g, rats with a body weight approximately 250 g, and rabbits with a body weight approximately 2,500 g.
(§8) Baits were offered with no choice of alternative food for five days.

[12] = tested on: rats with a body weight approximately 250 g; test: No-choice feeding test of three 100 ppm aldicarb presentations (Example 9), rats; assay type: in vivo, rat; conditions: after 5 days
Procedure: as §7, §8

in vivo = assay type: in vivo, rabbit; conditions: rabbit, in vivo, po; 100 ppm as HOMOGENEOUS; no choice, after 5 days; read-out: Rabbit Kill %
Procedure: as §7, §8

[13] = tested on: rabbits with a body weight approximately 2,500 g; test: in vivo; assay type: in vivo, rabbit; conditions: 100 ppm aldicarb; any of the three formulations
Procedure: as §7, §8

Rats [14] = test: Determination of optimum particle size (Example 10), rats; assay type: in vivo, rat; conditions: formulation C, one particle per 10 g diet base, after 5 days
Description: (§9) Rats were offered medium oatmeal diet containing aldicarb particles (formulation C) at the rate of one per 10 g diet base and mice were offered the particles at the rate of one per 4 g diet base.

mice [15] = test: Determination of optimum particle size (Example 10), mice; assay type: in vivo, mouse; conditions: formulation C, one particle per 4 g diet base, after 5 days
Description: as §9

[16] = formulation A 0.5 mg aldicarb particles, 4 days
[17] = 100 ppm as 0.4 × 0.4 mm particles (formulation C)
[18] = 100 ppm as 1.0 × 1.0 mm particles

Cc1cc(N(C)C)nc(Cl)n1 [CRIMIDINE, 2 chloro-4-(dimethylamino)-6-methylpyrimidine]
DAYS TO KILL (mice [1]): 5 days
Kill (%) (mice [1]): 100%
DAYS TO KILL (Rats [2]; bait conc. 250 ppm): 3 days
Kill (%) (Rats [2]; bait conc. 250 ppm): 100%

CC(=O)O[C@@H]1C[C@]2(O)[C@H](CC[C@]3(C)[C@@H](c4ccc(=O)oc4)CC[C@@]32O)[C@@]2(C)CC[C@H](O[C@@H]3O[C@H](CO)[C@@H](O)[C@H](O)[C@H]3O)C=C12 [SCILLIROSIDE, scilliroside]
DAYS TO KILL (Rats [2]; bait conc. 50 ppm): 2 days
Kill (%) (Rats [2]; bait conc. 50 ppm): 100%

O=C(O)CF [SODIUM FLUOROACETATE, Sodium fluoroacetate]
DAYS TO KILL (Rats [2]; bait conc. 250 ppm): 2 days
Kill (%) (Rats [2]; bait conc. 250 ppm): 100%

CNC(=O)O/N=C/C(C)(C)SC [aldicarb, 2 methyl-2-(methylthio) propionaldehyde 0-(methylcarbamoyl) oxime]
Kill Rat (female Wistar rats; Day 1): 0 out of 5
Kill Rat (female Wistar rats; Day 2): 0 out of 5
Kill Rat (female Wistar rats; Day 3): 0 out of 5
kills recorded (female Wistar rats; 100 ppm aldicarb, rats, after 3 days exposure): no kills
Kill Mouse (male LACA mice [3]; Day 1): 0 out of 10
Kill Mouse (male LACA mice [3]; Day 2): 0 out of 10
Kill Mouse (male LACA mice [3]; Day 3): 0 out of 10
Kill Mouse (male LACA mice [3]; Day 4): 0 out of 10
kills recorded (male LACA mice [3]; 100 ppm aldicarb, mice, after 4 days exposure): no kills
Kill (Wistar females; Day 1): 2 out of 5
Kill (Wistar females; Day 3): Remaining rat killed
Kill ([4]; Day 1): 3 out of 5
Kill ([4]; Day 3): Remaining rat killed
Kill (male LACA mice [5]; [16]): 40%
mice killed (total of Example 4) (male LACA mice [5]; [16]): 4 out of 10
Kill (male LACA mice [5]; formulation A, one 0.5 mg particle per 10 grams of oatmeal, Day 1): 1 out of 10
Kill (male LACA mice [6]; formulation A 0.2 mg aldicarb particles, Example 5): 100%
Kill (male LACA mice [6]; formulation A, one 0.2 mg particle per 2 grams of oatmeal, Day 1): 4 out of 10
Kill (male LACA mice [7]): 2 out of 5
Kill [8]: All killed
Mouse bait particles Rat Kill ([9]; Day 1): 0/5
Mouse bait particles Rat Kill ([9]; Day 2): 0/5
Mouse bait particles Rat Kill ([9]; Day 3): 0/5
Mouse bait particles Rat Kill ([9]; Day 4): 0/5
Mouse bait particles Rat Kill ([9]; Day 5 to 7): 0/5
kill of rats feeding on the mouse bait ([9]; 0.1 mg particles, 50 ppm bait, seven days of feeding): not killed even after seven days
Mouse bait particles Mouse Kill (male 12-18 gram LAC mice; Day 1): 4 out of 10
Mouse bait particles Mouse Kill (male 12-18 gram LAC mice; Day 3): Remaining mouse died
death of all animals (male 12-18 gram LAC mice; all mice feeding on the 0.1 mg particles, 50 ppm bait): died by the end of the third day
Rat bait particles Rat Kill ([10]; Day 1): 2 out of 5
Rat bait particles Rat Kill ([10]; Day 3): Remaining rat died
death of all animals ([10]; all rats feeding on the 1 mg particles, 50 ppm bait): died by the end of the third day
death of mice ([11]; 100 ppm aldicarb on 0.4 x 0.4 mm particles): All mice died
Mouse Kill % [11, 17]: 100%
Mouse Kill % [11, 18]: 30%
Mouse Kill % ([11]; 100 ppm as HOMOGENEOUS): 0%
Rat Kill % [12, 17]: 0%
Rat Kill % [12, 18]: 100%
Rat Kill % ([12]; 100 ppm as HOMOGENEOUS): 0%
mortality at 120 h (in vivo): 0%
death of rabbits [13]: No rabbits died
Kill (%) (Rats [14]; 60—80 g Weaner RATS, particle 0.75 × 0.75 mm): 100%
Kill (%) (Rats [14]; 60—80 g Weaner RATS, particle 1.0 × 1.0 mm): 100%
Kill (%) (Rats [14]; 60—80 g Weaner RATS, particle 1.5 × 3.0 mm): 80%
Kill (%) (Rats [14]; 300—400 g Adult RATS, particle 0.75 × 0.75 mm): 50%
Kill (%) (Rats [14]; 300—400 g Adult RATS, particle 1.0 × 1.0 mm): 100%
Kill (%) (Rats [14]; 300—400 g Adult RATS, particle 1.5 × 3.0 mm): 100%
Kill (%) (mice [15]; 12—10 g. Weaner MICE, particle 0.2 × 0.5 mm): 60%
Kill (%) (mice [15]; 12—10 g. Weaner MICE, particle 0.4 × 0.4 mm): 100%
Kill (%) (mice [15]; 12—10 g. Weaner MICE, particle 0.5 × 0.5 mm): 70%
Kill (%) (mice [15]; 12—10 g. Weaner MICE, particle 0.75 × 0.75 mm): 57%
Kill (%) (mice [15]; 20—25 g Adult MICE, particle 0.2 × 0.5 mm): 0%
Kill (%) (mice [15]; 20—25 g Adult MICE, particle 0.4 × 0.4 mm): 100%
Kill (%) (mice [15]; 20—25 g Adult MICE, particle 0.5 × 0.5 mm): 100%
